# Calls of active or inactive are those of the source. No cut-off for these calls is given here. Non-standard residues stand in square brackets, D forms with d. Residues, ends and D or L forms follow the SMILES beside them. *: point of attachment. Tetrazole5CO(2-(4-MeOPh)) = COc1ccc(-n2nnc(C(=O)*)n2)cc1; Trp(6-Cl) = N[C@@H](Cc1c[nH]c2cc(Cl)ccc12)C(=O)O; X1 = COc1ccc(N2N=C(C(=O)*)CC2C(N)=O)cc1; Methacryloyl = C=C(C)C(=O)*
# Target: E3 ubiquitin-protein ligase Mdm2 (Homo sapiens, UniProt Q00987)
# Assay: Inhibition of human GST-tagged Mdm2 expressed in Escherichia coli harboring integrated p53-Mmd2 protein assessed as blockade of enzyme-p53 interaction by ELISA assay
# Chain of E3 ubiquitin-protein ligase Mdm2 (Q00987 whole entry): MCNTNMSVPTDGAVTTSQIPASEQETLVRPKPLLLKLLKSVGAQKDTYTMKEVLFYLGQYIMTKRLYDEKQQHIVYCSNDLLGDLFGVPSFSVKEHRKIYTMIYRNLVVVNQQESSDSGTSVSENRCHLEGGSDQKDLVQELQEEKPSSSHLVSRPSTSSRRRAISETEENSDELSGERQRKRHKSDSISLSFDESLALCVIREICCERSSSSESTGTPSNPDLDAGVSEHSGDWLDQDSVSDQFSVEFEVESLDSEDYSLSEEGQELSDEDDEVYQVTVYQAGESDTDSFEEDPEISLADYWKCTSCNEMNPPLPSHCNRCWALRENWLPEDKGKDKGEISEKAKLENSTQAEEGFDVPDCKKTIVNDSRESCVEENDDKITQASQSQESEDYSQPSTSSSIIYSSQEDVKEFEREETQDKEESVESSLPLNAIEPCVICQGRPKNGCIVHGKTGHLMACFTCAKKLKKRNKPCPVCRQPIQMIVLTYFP
row,Compound,IC50 [nM]
1,Ac-LTFEHYWAK(Ac)LTS-NH2,< 48
2,CC(=O)NCCCC[C@H](NC(=O)[C@H](Cc1ccccc1)NC(=O)[C@@H](NC(=O)[C@H](CC(C)C)NC(C)=O)[C@@H](C)O)C(=O)N[C@@H](Cc1cnc[nH]1)C(=O)N[C@@H](Cc1ccc(O)cc1)C(=O)N[C@@H](Cc1c[nH]c2ccccc12)C(=O)N[C@@H](C)C(=O)N[C@@H](CCC(N)=O)C(=O)N[C@@H](CC(C)C)C(=O)N[C@H](C(=O)N[C@@H](CO)C(N)=O)[C@@H](C)O,< 10
3,Ac-LTFEHYWK(Ac)QLTS-NH2,< 31
4,CC(=O)NCCCC[C@H](NC(=O)[C@H](CC(C)C)NC(=O)[C@H](CCC(N)=O)NC(=O)[C@H](C)NC(=O)[C@H](Cc1c[nH]c2ccccc12)NC(=O)[C@H](Cc1ccc(O)cc1)NC(=O)[C@H](Cc1cnc[nH]1)NC(=O)[C@H](CCC(=O)O)NC(=O)[C@H](Cc1ccccc1)NC(=O)[C@@H](NC(=O)[C@H](CC(C)C)NC(C)=O)[C@@H](C)O)C(=O)N[C@@H](CO)C(N)=O,< 48

# Test system: U2OS
# Assay: Drug uptake in human U2OS cells at 20 uM after 4 hrs by fluorescence microscopy
# Format: ADME, cell-based
row,Compound,Drug uptake
1,C=C(C)C(=O)NCCCC[C@H](NC(=O)[C@H](Cc1ccccc1)NC(=O)[C@@H](NC(=O)[C@H](CC(C)C)NC(C)=O)[C@@H](C)O)C(=O)N[C@@H](Cc1cnc[nH]1)C(=O)N[C@@H](Cc1ccc(O)cc1)C(=O)N[C@@H](Cc1c[nH]c2ccccc12)C(=O)N[C@@H](C)C(=O)N[C@@H](CCCN=C(N)N)C(=O)N[C@@H](CC(C)C)C(=O)N[C@@H](CCCCNC(=O)c1nnn(-c2ccc(OC)cc2)n1)C(=O)N[C@@H](CO)C(N)=O,Active
2,C=C(C)C(=O)NCCCC[C@H](NC(=O)[C@H](Cc1ccccc1)NC(=O)[C@@H](NC(=O)[C@H](CC(C)C)NC(C)=O)[C@@H](C)O)C(=O)N[C@@H](Cc1cnc[nH]1)C(=O)N[C@@H](Cc1ccc(O)cc1)C(=O)N[C@@H](Cc1c[nH]c2ccccc12)C(=O)N[C@@H](CCCN=C(N)N)C(=O)N[C@@H](CCC(N)=O)C(=O)N[C@@H](CC(C)C)C(=O)N[C@@H](CCCCNC(=O)c1nnn(-c2ccc(OC)cc2)n1)C(=O)N[C@@H](CO)C(N)=O,Active
3,C=C(C)C(=O)NCCCC[C@H](NC(=O)[C@H](Cc1ccccc1)NC(=O)[C@@H](NC(=O)[C@H](CC(C)C)NC(C)=O)[C@@H](C)O)C(=O)N[C@@H](CCCNC(=N)N)C(=O)N[C@@H](Cc1ccc(O)cc1)C(=O)N[C@@H](Cc1c[nH]c2ccccc12)C(=O)N[C@@H](CCCNC(=N)N)C(=O)N[C@@H](CCC(N)=O)C(=O)N[C@@H](CC(C)C)C(=O)N[C@@H](CCCCNC(=O)c1nnn(-c2ccc(OC)cc2)n1)C(=O)N[C@@H](CO)C(N)=O (Ac-LTFK(Methacryloyl)RYWRQLK(Tetrazole5CO(2-(4-MeOPh)))S-NH2),Active
4,COc1ccc(N2N=C(C(=O)NCCCC[C@H](NC(=O)[C@H](CC(C)C)NC(=O)[C@H](CCC(N)=O)NC(=O)[C@H](CCCNC(=N)N)NC(=O)[C@H](Cc3c[nH]c4ccccc34)NC(=O)[C@H](Cc3ccc(O)cc3)NC(=O)[C@H](CCCNC(=N)N)NC(=O)[C@H](CCCCNC(C)=O)NC(=O)[C@H](Cc3ccccc3)NC(=O)[C@@H](NC(=O)[C@H](CC(C)C)NC(C)=O)[C@@H](C)O)C(=O)N[C@@H](CO)C(N)=O)CC2C(N)=O)cc1 (some centres not stated) (Ac-LTFK(Ac)RYWRQLK(X1)S-NH2),Active

# Next, values leading:
row,Drug uptake,Compound
1,Active,C=C(C)C(=O)NCCCC[C@H](NC(=O)[C@H](Cc1ccccc1)NC(=O)[C@@H](NC(=O)[C@H](CC(C)C)NC(C)=O)[C@@H](C)O)C(=O)N[C@@H](CCCN=C(N)N)C(=O)N[C@@H](Cc1ccc(O)cc1)C(=O)N[C@@H](Cc1c[nH]c2cc(Cl)ccc12)C(=O)N[C@@H](CCCN=C(N)N)C(=O)N[C@@H](CCC(N)=O)C(=O)N[C@@H](CC(C)C)C(=O)N[C@@H](CCCCNC(=O)c1nnn(-c2ccc(OC)cc2)n1)C(=O)N[C@@H](CO)C(N)=O (Ac-LTFK(Methacryloyl)RY[Trp(6-Cl)]RQLK(Tetrazole5CO(2-(4-MeOPh)))S-NH2)
2,Active,C=C(C)C(=O)NCCCC[C@H](NC(=O)[C@H](Cc1ccccc1)NC(=O)[C@@H](NC(=O)[C@H](CC(C)C)NC(C)=O)[C@@H](C)O)C(=O)N[C@@H](CCCN=C(N)N)C(=O)N[C@@H](Cc1ccc(O)cc1)C(=O)N[C@@H](Cc1c[nH]c2ccccc12)C(=O)N[C@@H](C)C(=O)N[C@@H](CCCN=C(N)N)C(=O)N[C@@H](CC(C)C)C(=O)N[C@@H](CCCCNC(=O)c1nnn(-c2ccc(OC)cc2)n1)C(=O)N[C@@H](CO)C(N)=O (Ac-LTFK(Methacryloyl)RYWARLK(Tetrazole5CO(2-(4-MeOPh)))S-NH2)

# Test system: U2OS
# Assay: Induction of p53-dependent luciferase activity in human U2OS cells at 20 uM
# Format: functional, cell-based
row,Compound,Activity
1,Ac-LTFEHYWAQLTS-NH2,inactive
2,COc1ccc(N2N=C(C(=O)NCCCC[C@H](NC(=O)[C@H](CC(C)C)NC(=O)[C@H](CCC(N)=O)NC(=O)[C@H](CCCNC(=N)N)NC(=O)[C@H](Cc3c[nH]c4ccccc34)NC(=O)[C@H](Cc3ccc(O)cc3)NC(=O)[C@H](CCCNC(=N)N)NC(=O)[C@H](CCCCNC(C)=O)NC(=O)[C@H](Cc3ccccc3)NC(=O)[C@@H](NC(=O)[C@H](CC(C)C)NC(C)=O)[C@@H](C)O)C(=O)N[C@@H](CO)C(N)=O)CC2C(N)=O)cc1 (some centres not stated) (Ac-LTFK(Ac)RYWRQLK(X1)S-NH2),inactive
